Experiment [1] deals with C57/Bl6 mice subjected to chronic restraint stress (working memory deficit). Kind of experiment: Y-maze alternation task after chronic restraint stress (CRS). It counts as in vivo. Particulars: 10 mg/kg i.p., acute, 30 min before testing, vs CRS vehicle. On the procedure:
Young Animals and chronic stress procedure: C57/Bl6 mice, males and females at 8 weeks old and are kept in normal housing conditions (12 h light ON cycle starting at 7 am/water and food ad libitum) for one week. During this week, animals are single housed and handled to reduce the anxiety-like response toward the experimenter. To induce a working memory deficit, mice are subjected to a chronic restraint stress protocol (CRS). They are placed in a 50 mL Falcon® tube, twice a day, for 1 hour during their diurnal cycle. The time of occurrence of the stress is randomized every day to avoid predictability. CRS is not applied on testing days. Y-maze test occurs 15 hours minimum after the last stressor.
Protocol: Mice are first habituated to the Y-maze apparatus and distal cues during 2 consecutive days over a 10 min free exploration session (one session per day). The next day, animals perform a training session consisting in seven successive trials separated by a 30 s inter-trial interval (ITI); during this training session, mice are familiarized with the experimental procedure (opening and closing of the doors and confinement into the goal arms). For each trial, mice remain in the start-box for a 30 s ITI. Then, the door is opened and the mouse is allowed to enter freely one of the two goal arms; the chosen arm is closed and the choice is recorded. After a 30 s confinement period into the chosen arm, the mouse is removed and brought back to the start-box for a second trial identical to the first one and this procedure is repeated over the series of trials.
The same general procedure used in the training session is implemented 24 h later, except that the ITI was lengthened to 90 s. For this experiment, animals are acutely injected i.p. with vehicle or drug, 30 minutes before the beginning of the test. To dissociate memory deficits from an eventual progressive loss of motivation to alternate over the series, an 8th trial is added to the series which is separated from the 7th trial by a shorter ITI (5 s). All animals failing to alternate at the 8th trial are excluded. The mean alternation rate is calculated and is expressed in percentage (number of alternation done by the animal/total number of alternation possible×100)±SEM. The percentage of alternation during the entire task is considered as an index of working memory performance (50% of being a random alternation rate). Factorial ANOVA is applied to the data to reveal differences between groups. If the ANOVA is significant for group effect (p<0.05), Scheffe post-hoc analysis are conducted to identify which groups are different from each other.
Drug preparation and administration: All drugs are diluted in a vehicle solution containing 85% H2O, 14% propylene glycol (Sigma Aldrich) and 1% Tween 80 (Sigma Aldrich). Working solutions are prepared at a concentration of 10 mg/mL and administered i.p. adjusted to the body weight of each animal. Doses used are either 1, 5, 10 or 20 mg/kg. For all Y maze experiments, animals are acutely injected i.p. with vehicle or drug, 30 minutes before the beginning of the test.

The target of the next experiment is T1, α5β3γ2 GABAA receptor (Homo sapiens, UniProt P18507+P31644).
T1 construct: Full-length cDNAs for GABAA receptor subtypes are transfected into the human embryonic kidney cell line HEK-293T; expressed in transfected cells; host or cells: human mammalian cells (HEK-293T per Procedure B)
T1 sequence (P31644 32-462): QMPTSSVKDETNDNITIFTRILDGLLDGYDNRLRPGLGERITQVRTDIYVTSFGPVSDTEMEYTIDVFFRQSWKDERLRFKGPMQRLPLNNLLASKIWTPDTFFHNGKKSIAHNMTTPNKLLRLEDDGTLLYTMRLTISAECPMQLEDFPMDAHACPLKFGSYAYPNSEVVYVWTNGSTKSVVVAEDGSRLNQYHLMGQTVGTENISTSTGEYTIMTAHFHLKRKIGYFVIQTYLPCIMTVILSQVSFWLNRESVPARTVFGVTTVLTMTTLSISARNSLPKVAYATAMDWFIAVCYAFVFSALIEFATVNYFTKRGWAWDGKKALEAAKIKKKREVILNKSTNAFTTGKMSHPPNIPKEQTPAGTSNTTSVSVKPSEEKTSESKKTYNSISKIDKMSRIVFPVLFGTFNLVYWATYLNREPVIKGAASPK
T1 sequence (P28472 26-473 partner): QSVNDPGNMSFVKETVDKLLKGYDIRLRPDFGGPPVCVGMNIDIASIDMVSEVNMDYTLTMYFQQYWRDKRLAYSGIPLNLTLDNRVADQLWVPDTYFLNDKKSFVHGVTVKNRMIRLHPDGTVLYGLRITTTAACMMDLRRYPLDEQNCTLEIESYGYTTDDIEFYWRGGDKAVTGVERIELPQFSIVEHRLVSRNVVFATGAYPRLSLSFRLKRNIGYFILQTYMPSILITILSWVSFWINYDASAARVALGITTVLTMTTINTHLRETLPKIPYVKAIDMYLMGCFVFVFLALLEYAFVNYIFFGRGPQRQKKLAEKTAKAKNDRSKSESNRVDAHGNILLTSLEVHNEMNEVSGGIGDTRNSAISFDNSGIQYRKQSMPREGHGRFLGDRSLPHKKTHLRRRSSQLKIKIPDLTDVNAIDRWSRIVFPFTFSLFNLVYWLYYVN
T1 sequence (P18507 40-475): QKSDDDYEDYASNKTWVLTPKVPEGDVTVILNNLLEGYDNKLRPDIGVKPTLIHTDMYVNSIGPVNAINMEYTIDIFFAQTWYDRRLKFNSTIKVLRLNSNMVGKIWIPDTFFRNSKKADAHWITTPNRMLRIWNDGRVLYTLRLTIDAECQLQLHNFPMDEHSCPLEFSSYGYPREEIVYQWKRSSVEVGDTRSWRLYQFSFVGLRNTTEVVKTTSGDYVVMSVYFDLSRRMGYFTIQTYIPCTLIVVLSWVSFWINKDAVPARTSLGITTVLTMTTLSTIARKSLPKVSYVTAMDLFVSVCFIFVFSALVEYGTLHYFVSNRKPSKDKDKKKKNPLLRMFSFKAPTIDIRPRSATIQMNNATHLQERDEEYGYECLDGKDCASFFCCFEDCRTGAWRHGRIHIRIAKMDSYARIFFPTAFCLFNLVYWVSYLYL
In words: Electrophysiology in transfected cells (IonWorks Barracuda), PAM effect on current induced by 5 μM GABA. The experiment is classed as cell-based. Here is the method: (§1) Procedure B: Full-length cDNAs for GABAA receptor subtypes are transfected into the human embryonic kidney cell line HEK-293T. All subtypes are rat clones except for α2, which is a human clone. Cells are patch-clamped at −50 mV in the whole-cell recording configuration. GABA is diluted into the bath and compounds are dissolved in DMSO and diluted into bath solution. Solutions containing GABA or GABA+ compounds are applied to cells for 5 s. Currents are recorded with an Axon 200B patch clamp amplifier. Data is normalized data current expressed as a percentage of the response to GABA alone for each cell.
(§2) Electrophysiological Characterization of GL-III-68 by Procedure B: Human mammalian cells are transfected with human […] GABAA receptors. Cells are incubated with GL-III-68 at a range of concentrations from 0.03 μM to 100 μM. Currents are induced by stimulation with 5 μM GABA and recorded using the IonWorks Barracuda® test platform. Current is normalized to the current induced by 5 μM of GABA in the absence of any allosteric modulator. PAM effect of at different subtypes of GABA^A receptor. % of current was calculated relatively to current produced by 5 μM GABA alone (set to 100%) (FIG. 21). EC50 results are shown below.

For a further experiment, the target named is T2, α1β3γ2 GABAA receptor (Homo sapiens, UniProt P14867+P18507).
T2 construct: Full-length cDNAs for GABAA receptor subtypes are transfected into the human embryonic kidney cell line HEK-293T; expressed in transfected cells; host or cells: human mammalian cells (HEK-293T per Procedure B)
T2 sequence (P14867 28-456): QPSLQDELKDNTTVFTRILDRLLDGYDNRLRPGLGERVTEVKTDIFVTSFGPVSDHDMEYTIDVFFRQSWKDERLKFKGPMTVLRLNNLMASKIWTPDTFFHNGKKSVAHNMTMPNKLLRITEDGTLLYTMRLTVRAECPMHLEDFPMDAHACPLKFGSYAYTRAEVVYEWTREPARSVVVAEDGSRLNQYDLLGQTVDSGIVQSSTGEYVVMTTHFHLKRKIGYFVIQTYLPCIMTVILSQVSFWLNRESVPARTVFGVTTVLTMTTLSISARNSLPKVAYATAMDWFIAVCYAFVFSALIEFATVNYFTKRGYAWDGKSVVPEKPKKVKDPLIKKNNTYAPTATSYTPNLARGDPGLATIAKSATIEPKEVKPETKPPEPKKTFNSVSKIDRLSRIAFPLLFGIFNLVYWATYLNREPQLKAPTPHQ
T2 sequence (P28472 26-473 partner): as the sequence (P28472 26-473 partner) above
T2 sequence (P18507 40-475): as the sequence (P18507 40-475) above
The experiment is described as above. The experiment is classed as cell-based. On the procedure: as §1, §2

Another experiment has as its target T3, α3β3γ2 GABAA receptor (Homo sapiens, UniProt P18507+P34903).
T3 construct: Full-length cDNAs for GABAA receptor subtypes are transfected into the human embryonic kidney cell line HEK-293T; expressed in transfected cells; host or cells: human mammalian cells (HEK-293T per Procedure B)
The experiment is described as above. The experiment is classed as cell-based. Here is the method:
as §1, §2

The target of a further experiment is T4, α2β3γ2 GABAA receptor (Homo sapiens, UniProt P18507+P47869).
T4 construct: Full-length cDNAs for GABAA receptor subtypes are transfected into the human embryonic kidney cell line HEK-293T; expressed in transfected cells; host or cells: human mammalian cells (HEK-293T per Procedure B)
T4 sequence (P47869 29-451): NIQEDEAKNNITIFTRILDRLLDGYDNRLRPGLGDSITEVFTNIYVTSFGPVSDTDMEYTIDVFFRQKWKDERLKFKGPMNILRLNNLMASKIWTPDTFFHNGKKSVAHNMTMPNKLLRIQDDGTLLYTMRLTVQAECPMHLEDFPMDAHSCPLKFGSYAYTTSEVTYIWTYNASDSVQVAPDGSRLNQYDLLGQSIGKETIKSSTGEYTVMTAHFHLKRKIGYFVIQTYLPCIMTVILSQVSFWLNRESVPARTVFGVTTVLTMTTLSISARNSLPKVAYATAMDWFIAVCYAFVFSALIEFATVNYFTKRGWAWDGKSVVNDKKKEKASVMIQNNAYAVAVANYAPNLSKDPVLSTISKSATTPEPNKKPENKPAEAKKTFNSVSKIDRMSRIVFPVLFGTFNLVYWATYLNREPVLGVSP
T4 sequence (P28472 26-473 partner): as the sequence (P28472 26-473 partner) above
T4 sequence (P18507 40-475): as the sequence (P18507 40-475) above
The description is as above. The experiment is classed as cell-based. On the procedure:
as §1, §2

T3 sequence (P34903 29-492): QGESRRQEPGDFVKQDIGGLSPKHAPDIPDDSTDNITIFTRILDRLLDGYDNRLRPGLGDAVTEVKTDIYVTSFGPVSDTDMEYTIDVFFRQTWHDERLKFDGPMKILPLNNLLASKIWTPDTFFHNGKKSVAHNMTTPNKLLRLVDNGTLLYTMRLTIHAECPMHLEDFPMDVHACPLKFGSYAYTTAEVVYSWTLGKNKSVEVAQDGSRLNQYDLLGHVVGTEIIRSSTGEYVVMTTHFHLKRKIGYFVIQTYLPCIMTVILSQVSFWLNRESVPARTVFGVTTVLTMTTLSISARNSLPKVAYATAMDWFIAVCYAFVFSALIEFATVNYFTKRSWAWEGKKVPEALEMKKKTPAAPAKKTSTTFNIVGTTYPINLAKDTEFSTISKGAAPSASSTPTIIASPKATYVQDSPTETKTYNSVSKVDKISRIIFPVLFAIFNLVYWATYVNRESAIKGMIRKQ
T3 sequence (P28472 26-473 partner): as the sequence (P28472 26-473 partner) above
T3 sequence (P18507 40-475): as the sequence (P18507 40-475) above

For `CCNC(=O)c1ncn2c1[C@@H](C)N=C(c1ccccc1F)c1cc(C3CC3)ccc1-2` [GL-III-68, (R)-8-Cyclopropyl-N-ethyl-6-(2-fluorophenyl)-4-methyl-4H-benzo[f]imidazo[1,5-a][1,4]diazepine-3-carboxamide], in experiment [1], the “reversal of CRS-induced reduction of alternation rate (Y-maze)” value was “reversed”. Further, the EC50 is less than 0.03 µM on α5β3γ2 GABAA receptor, 10.7 µM on α1β3γ2 GABAA receptor, 3.52 µM at α3β3γ2 GABAA receptor and 1.91 µM at α2β3γ2 GABAA receptor. Moreover, the Emax at α5β3γ2 GABAA receptor (α5β3γ2, % of current produced by 5 μM GABA alone (set to 100%)) turned out to be 188%; on α1β3γ2 GABAA receptor (α1β3γ2, % of current produced by 5 μM GABA alone (set to 100%)) it was 188%; on α3β3γ2 GABAA receptor (α3β3γ2, % of current produced by 5 μM GABA alone (set to 100%)), 209%; at α2β3γ2 GABAA receptor (α2β3γ2, % of current produced by 5 μM GABA alone (set to 100%)) it was 224%.

These data come from patent US20240374612A1, “IMIDAZOBENZO[…] TREATMENT OF COGNITIVE AND MOOD SYMPTOMS” (UWM Research Foundation, Inc., priority 2021, published 2024).
